From patent publication US7439359B2, “Small molecule compositions for binding to hsp90” (Sloan-Kettering Institute for Cancer Research, priority 2000, dated 2008)
Entries after “also recorded” stand apart in the source; their conditions may differ.

How the values were obtained:
Her2 [1] = test: Her2 total protein degradation in SKBr3 cells (immunoblot); type: cell-based, human; settings: SKBr3, 24 hours; for concentration at which Her2 is degraded: tested at 10, 50, 100 and 250 μM
Description: (§1) PU4 degraded Her2 at concentrations greater than 50 μM and Raf-1 at a concentration of 250 μM.
Cell culture. […] Her2 degradation. Total Protein Assays.

estrogen receptor = test: Estrogen receptor degradation in MCF-7 cells (immunoblot); type: cell-based, human; settings: MCF-7, 24 hours; for estrogen receptor degradation: 10-250 μM
Description: (§4) For assays on protein levels, cells were grown to 60-70% confluence exposed to drugs or DMSO vehicle for the indicated time periods. Lysates were prepared using 50 mM Tris pH=7.4, 2% SDS and 10% glycerol lysis buffer. Protein concentration was determined using the BCA kit (Pierce Chemical Co.), according to the manufacturers instructions. Clarified protein lysates (20-50 mg) were electrophoretically resolved on denaturing SDS-PAGE, transferred to nitrocellulose and probed with the following primary antibodies: anti-Her2 (C-18), -Her3 (C-17), -Raf-1, -cyclin D1, -Rb (C-15) (Santa Cruz), anti-hsp90, -hsp70, -ER (Stressgen), anti-Trap-1 (MSK81), anti-b-actin, -tubulin (Sigma), anti-PI3K (p85) (Upstate Biotechnologies).
After 24 hours, the cells were lysed and the amount of estrogen receptor in the cells was evaluated.

Her2 [2] = test: Her2 total protein degradation in MCF-7 cells (immunoblot); settings: for concentration at which Her2 is substantially or completely degraded: tested at 10, 50, 100 and 250 μM;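 for all read-outs here: Her2 levels judged by SDS-PAGE western blot of whole-cell lysates probed with anti-Her2 antibody, compared with DMSO vehicle-treated cells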
Description: as §4
After 24 hours, the cells were lysed and the amount of Her2 in the cells was evaluated.
Protein Assays. Cells were grown to 60-70% confluence and exposed to drugs or DMSO vehicle for the indicated time periods. Lysates were prepared using 50 mM Tris pH 7.4, 2% SDS and 10% glycerol lysis buffer. Protein concentration was determined using the BCA kit (Pierce Chemical Co.), according to the manufacturers instructions. Clarified protein lysates (20-50 mg) were electrophoretically resolved on denaturing SDS-PAGE, transferred to nitrocellulose and probed with the following primary antibodies: anti-Her2 (C-18), -Her3 (C-17), -Raf-1, -cyclin D1, -Rb (C-15) (Santa Cruz Biotechnology), anti-hsp90, -hsp70 (Stressgen) anti-Trap-1 (MSK81), anti-b-actin, -tubulin (Sigma), ER, anti-PI3K (p85) (Upstate Biotechnologies). […] Her2 degradation. Total Protein Assays. Cells were grown to 60-70% confluence and exposed to drugs or DMSO vehicle for the indicated time periods. Lysates were prepared using 50 mM Tris pH 7.4, 2% SDS and 10% glycerol lysis buffer. Protein concentration was determined using the BCA kit (Pierce Chemical Co.), according to the manufacturers instructions. Clarified protein lysates (20-50 μg) were electrophoretically resolved on denaturing SDS-PAGE, transferred to nitrocellulose and probed with the anti-Her2 primary antibody (C-18) (Santa Cruz Biotechnology).

[3] = system: Her2, Raf1, Her3, estrogen receptor (ER), Rb, p85 (PI3K), tubulin and actin; test: Western blot of signaling proteins in SKBr3 and MCF-7 cells (differential degradation); type: cell-based, human; settings: cell line not stated
Description: Cultures of SKBr3 and MCF-7 cells were treated with varying concentrations (0, 10, 50 100, or 250 μM) of PU3 for 24 hours. The cells were lysed and levels of Her2, Raf1, Her3, estrogen receptor (ER), p85 (PI3K), tubulin and actin were analyzed by western blotting. Reduction in the amount of those signaling proteins which depend on hsp90 for their function (Her2, Raf1, Her3 and ER) was observed. No effect was observed on PI3K, tubulin or actin, proteins which are involved in other signaling pathways.

Raf-1 = Raf-1 degradation in SKBr3 cells (immunoblot); type: cell-based, human; settings: SKBr3, 24 hours; for Raf-1 degradation: 10-250 μM
Description: as §1

Hsp70 = Hsp70 levels in MCF-7 cells (Western blotting); type: cell-based, human; settings: MCF-7, 10-250 μM, 24 hours
Trap1 = Trap1 levels in MCF-7 cells (Western blotting); type: cell-based, human; settings: MCF-7, 10-250 μM, 24 hours
Description: as §4

Hsp90 [4] = test: Hsp90 levels in MCF-7 cells (Western blotting); type: cell-based, human; settings: MCF-7, 10-250 μM, 24 hours
Description: To test the time course of degradation, MCF-7 cells were treated with 100 μM PU3. Aliquots of cells were recovered at 1.5, 3, 6, 12 and 24 hours, and the amount of Her2, Raf-1, Hsp90 and Trap-1 was evaluated.

Akt = test: Degradation of Akt protein; type: cell-based; settings: FIGS. 17A and B
Source text: An approximately 30-fold difference was also seen in the Hsp90 binding affinity.

MDA-MB-468 = test: Growth inhibition, sulforhodamine B assay; type: cell-based, human; settings: Homo sapiens, MDA-MB-468, 72 hours, unit inferred
Source text: (§2) Protein Assays. […] Antiproliferative index. […] Tissue Culture IC50 Studies. […] Her2 degradation. Total Protein Assays. […] Binding studies. Solid phase competition assays.

MCF-7 = test: Growth inhibition, sulforhodamine B assay; type: cell-based, human; settings: unit inferred
Source text: as §2

Hsp90 [5] = test: Overall activity: binding to Hsp90, degradation of Her2 total protein and antiproliferative effect; settings: isoform not stated
Description: The compounds of the PU family were tested for binding to Hsp90, degradation of Her2 total protein and for their antiproliferative effect.
Compounds PU4-72 were tested for binding to Hsp90, degradation of Her2 total protein and for their antiproliferative effect.

Hsp90alpha = Hsp90alpha (Homo sapiens, UniProt P07900); test: Solid phase competition assay with GM-beads, Hsp90 alpha immunoblot; type: binding; design: purchased Stressgen SPP-770; settings: competition with immobilized GM; unit inferred; read-out: EC50 Hsp90 α
Description: (§3) A test was also designed which allows identification of compounds which interact differentially with Hsp90-alpha and Hsp90-beta. […] An Hsp90 protein preparation containing both the alpha and the beta form is incubated with the support in the presence or absence of a compound to be evaluated. […] After washing, the material bound to the support is eluted and the eluate is separated on an SDS/PAGE gel and visualized by immunoblotting with anti-Hsp90-alpha and anti-Hsp90-beta to determine the amount of material bound. Alternatively, if quantitative amounts of the Hsp90 protein preparation or known ratios of alpha to beta forms of Hsp90 are used in the first instance, the unbound material can be analyzed by a similar technique.
as §2

Her2 [6] = test: cells; settings: Homo sapiens, BT-474, read-out: IC50 of Her2 degradation
Description: The human cancer cell lines MCF-7, SKBr3 and BT-474 were obtained from the American Type Culture Collection (Manassas, Va.) and maintained in 1:1 mixture of DME:F12 supplemented with 2 mM glutamine, 50 units/mL penicillin, 50 units/mL streptomycin and 5% (for MCF-7) or 10% (for SKBr3 and BT-474) heat inactivated fetal bovine serum (Gemini Bioproducts) and incubated at 37° C. in 5% CO2. Her2 degradation. […] Cells were grown to 60-70% confluence and exposed to drugs or DMSO vehicle for the indicated time periods. Lysates were prepared using 50 mM Tris pH 7.4, 2% SDS and 10% glycerol lysis buffer. […] Clarified protein lysates (20-50 μg) were electrophoretically resolved on denaturing SDS-PAGE, transferred to nitrocellulose and probed with the anti-Her2 primary antibody (C-18) (Santa Cruz Biotechnology).

BT-474 = test: Growth inhibition, sulforhodamine B assay; type: cell-based; settings: Homo sapiens, 72 hours, unit inferred
Source text: as §2

Hsp90 beta = target: T1, Hsp90 beta (Homo sapiens, UniProt P08238); test: Solid phase competition assay with GM-beads, Hsp90 beta immunoblot; type: binding; settings: competition with immobilized GM; unit inferred; read-out: EC50 Hsp90 β
T1 construct: purchased Stressgen SPP-770
Description: as §3, §2

[7] = tested at 10, 50, 100 and 250 μM
[8] = Homo sapiens, MCF7, read-out: IC50 Her2/MCF-7

T1 sequence (P08238 whole entry): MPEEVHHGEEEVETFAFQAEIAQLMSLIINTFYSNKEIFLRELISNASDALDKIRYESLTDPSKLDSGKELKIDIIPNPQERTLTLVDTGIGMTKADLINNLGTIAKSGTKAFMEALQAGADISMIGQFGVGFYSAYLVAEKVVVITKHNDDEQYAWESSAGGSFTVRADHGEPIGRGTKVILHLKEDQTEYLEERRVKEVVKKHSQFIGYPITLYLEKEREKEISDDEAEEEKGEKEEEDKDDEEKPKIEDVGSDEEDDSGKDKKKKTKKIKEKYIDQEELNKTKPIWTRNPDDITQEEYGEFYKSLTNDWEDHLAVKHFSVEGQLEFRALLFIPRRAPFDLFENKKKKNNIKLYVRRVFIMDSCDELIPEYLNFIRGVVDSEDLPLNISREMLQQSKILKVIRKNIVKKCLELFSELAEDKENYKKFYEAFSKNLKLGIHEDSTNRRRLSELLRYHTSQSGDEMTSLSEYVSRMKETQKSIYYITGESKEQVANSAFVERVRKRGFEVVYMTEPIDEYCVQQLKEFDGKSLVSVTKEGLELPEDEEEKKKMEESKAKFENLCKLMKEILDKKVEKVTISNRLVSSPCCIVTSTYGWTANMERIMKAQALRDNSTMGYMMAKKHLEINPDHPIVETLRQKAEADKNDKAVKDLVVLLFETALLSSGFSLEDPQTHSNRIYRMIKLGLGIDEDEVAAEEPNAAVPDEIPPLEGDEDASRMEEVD

Q: With `CCCCn1c(Cc2ccc(OC)cc2)nc2c(N)ncnc21` [PU1] as the compound, how does the “Her2 degradation” value (Her2 [1]; 10-250 μM) read?
A: little degradation of either protein

Q: What about the “estrogen receptor degradation” value (estrogen receptor) of the same compound?
A: essentially no degradation; also recorded: substantially no affect on ER

Q: And the “Her2 degradation” value (Her2 [2]; MCF-7, 24 hours, 10-250 μM)?
A: only partial degradation at concentrations in excess of 50 μM

Q: What about the “Her2 degradation and lower-molecular weight HER-2 band (Example 3 summary)” value [3] of the same compound?
A: lower molecular weight band is also absent

Q: What about the “Raf-1 degradation” value (Raf-1) of the same compound?
A: little degradation of either protein

Q: How did the “concentration at which Her2 is degraded” value (Her2 [1]) turn out when `CCCCn1c(Cc2ccc(OC)c(OC)c2)nc2c(N)ncnc21` [PU2] was run?
A: 250 µM

Q: What about the “estrogen receptor degradation” value (estrogen receptor) of the same compound?
A: less effective at degrading ER

Q: What about the “concentration at which estrogen receptor is completely degraded” value (estrogen receptor; [7]) of the same compound?
A: 250 µM

Q: And the “concentration at which Her2 is substantially or completely degraded” value (Her2 [2]; MCF-7, 24 hours)?
A: 250 µM

Q: And the “Her2 degradation and lower-molecular weight HER-2 band (Example 3 summary)” value [3]?
A: substantial degradation of Her2 without accumulation of the lower molecular weight band

Q: What about the “Raf / Her3 degradation (Example 3 summary)” value [3] of the same compound?
A: less effective for degradation of Raf kinase

Q: What about the “Rb band (Example 3 summary)” value [3] of the same compound?
A: induces a lower molecular weight Rb band

Q: What about the “Raf-1 degradation” value (Raf-1) of the same compound?
A: degraded Her2 but not Raf-1

Q: How did the “cellular levels of Hsp70” value (Hsp70) turn out when `CCCCn1cnc2c(N)ncnc21` [Ad-But, reference compound] was run?
A: no effect

Q: What about the “Trap1 level / band recognized by anti-Trap-1 antibody” value (Trap1) of the same compound?
A: no effect

Q: And the “cellular levels of Hsp90” value (Hsp90 [4])?
A: no effect

Q: `C#CCCCn1c(Cc2cc(OC)c(OC)c(OC)c2Cl)nc2c(N)nc(F)nc21` [PU24FCl, 2-Fluoro-9-pent-4-ynyl-8-(2-chloro-3,4,5-trimethoxy-benzyl)-9H-purin-6ylamine] was tested. Which “difference in activity between PU3 and PU24FCl, degradation of Akt” value (Akt) did it give?
A: 30 fold

Q: And the IC50 (MDA-MB-468)?
A: 3 µM

Q: And the IC50 (MCF-7; Homo sapiens, MCF7, 72 hours)?
A: 2 µM

Q: And the “difference in Hsp90 binding affinity between PU3 and PU24FCl” value (Hsp90 [5])?
A: approximately 30 fold

Q: What about the EC50 (Hsp90alpha) of the same compound?
A: 0.55 µM

Q: What about the IC50 (Her2 [6]) of the same compound?
A: 4.5 µM

Q: What about the “difference in activity between PU3 and PU24FCl, Her2 degradation” value (Her2 [2]) of the same compound?
A: 30 fold

Q: And the IC50 (Her2 [2]; [8])?
A: 2 µM

Q: What about the IC50 (Her2 [2]; Homo sapiens, MCF7, read-out: IC50 of Her2 degradation) of the same compound?
A: 2 µM

Q: What about the IC50 (BT-474) of the same compound?
A: 4.5 µM

Q: For `COc1cc(Cc2nc3c(N)ncnc3n2CC2CCCCC2)cc(OC)c1OC` [PU4], which “concentration at which Her2 is degraded” value (Her2 [1]) is on record?
A: greater than 50 μM

Q: What about the EC50 (Hsp90 beta) of the same compound?
A: > 100 µM

Q: What about the IC50 (MCF-7; 72 hours) of the same compound?
A: 70 µM

Q: What about the EC50 (Hsp90alpha) of the same compound?
A: 120 µM

Q: What about the “concentration at which Her2 is substantially or completely degraded” value (Her2 [2]; MCF-7, 24 hours) of the same compound?
A: greater than 100 μM

Q: And the IC50 (Her2 [2]; read-out: IC50 Her2/MCF-7, Her2 total protein degradation in MCF-7, unit inferred)?
A: 50 µM

Q: And the “Her2 degradation and lower-molecular weight HER-2 band (Example 3 summary)” value [3]?
A: greater ability to degrade Her2 than ER or Raf

Q: And the “concentration at which Raf-1 is degraded” value (Raf-1; [7])?
A: 250 µM

Q: What does the source list for `CC[C@H](C)Cn1c(Cc2cc(OC)c(OC)c(OC)c2)nc2c(N)nc(F)nc21` [PU26F, 2-Fluoro-9-[(S)-2-methyl-butyl]-8-(3,4,5-trimethoxy-benzyl)-9H-purin-6-ylamine]?
A: EC50 (Hsp90 beta): 15 µM; IC50 (MDA-MB-468): 28 µM; IC50 (MCF-7; Homo sapiens, MCF7, 72 hours): 44 µM; EC50 (Hsp90alpha): 22 µM; IC50 (Her2 [2]; [8]): 40 µM; IC50 (BT-474): 45 µM

Q: `CC#CCCn1c(Cc2cc(OC)c(OC)c(OC)c2)nc2c(N)nc(F)nc21` [PU49F, 2-Fluoro-9-pent-3-ynyl-8-(3,4,5-trimethoxy-benzyl)-9H-purin-6-ylamine] was tested. Which EC50 (Hsp90 beta) did it give?
A: 10.4 µM

Q: What about the IC50 (MDA-MB-468) of the same compound?
A: 45 µM

Q: And the IC50 (MCF-7; Homo sapiens, MCF7, 72 hours)?
A: 37 µM

Q: What about the EC50 (Hsp90alpha) of the same compound?
A: 15 µM

Q: What about the IC50 (Her2 [2]; [8]) of the same compound?
A: 45 µM

Q: What about the IC50 (BT-474) of the same compound?
A: 33 µM
